Results as given in patent US11208412B2 (DAEGU-GYEONGBUK MEDICAL INNOVATION FOUNDATION, priority 2017, dated 2021).

Assays:
Assay in all cases: Kinase selectivity, DiscoverX scanMAX Kinase assay panel (% control)
Type in all cases: binding
[1] = target: T1, kinases of the scanMAX Kinase assay panel (Homo sapiens, UniProt O14936); conditions: CASK; 1 uM
T1 construct: purchased DiscoverX Co. (contract measurement) scanMAX Kinase assay panel
T1 sequence (O14936 1-926): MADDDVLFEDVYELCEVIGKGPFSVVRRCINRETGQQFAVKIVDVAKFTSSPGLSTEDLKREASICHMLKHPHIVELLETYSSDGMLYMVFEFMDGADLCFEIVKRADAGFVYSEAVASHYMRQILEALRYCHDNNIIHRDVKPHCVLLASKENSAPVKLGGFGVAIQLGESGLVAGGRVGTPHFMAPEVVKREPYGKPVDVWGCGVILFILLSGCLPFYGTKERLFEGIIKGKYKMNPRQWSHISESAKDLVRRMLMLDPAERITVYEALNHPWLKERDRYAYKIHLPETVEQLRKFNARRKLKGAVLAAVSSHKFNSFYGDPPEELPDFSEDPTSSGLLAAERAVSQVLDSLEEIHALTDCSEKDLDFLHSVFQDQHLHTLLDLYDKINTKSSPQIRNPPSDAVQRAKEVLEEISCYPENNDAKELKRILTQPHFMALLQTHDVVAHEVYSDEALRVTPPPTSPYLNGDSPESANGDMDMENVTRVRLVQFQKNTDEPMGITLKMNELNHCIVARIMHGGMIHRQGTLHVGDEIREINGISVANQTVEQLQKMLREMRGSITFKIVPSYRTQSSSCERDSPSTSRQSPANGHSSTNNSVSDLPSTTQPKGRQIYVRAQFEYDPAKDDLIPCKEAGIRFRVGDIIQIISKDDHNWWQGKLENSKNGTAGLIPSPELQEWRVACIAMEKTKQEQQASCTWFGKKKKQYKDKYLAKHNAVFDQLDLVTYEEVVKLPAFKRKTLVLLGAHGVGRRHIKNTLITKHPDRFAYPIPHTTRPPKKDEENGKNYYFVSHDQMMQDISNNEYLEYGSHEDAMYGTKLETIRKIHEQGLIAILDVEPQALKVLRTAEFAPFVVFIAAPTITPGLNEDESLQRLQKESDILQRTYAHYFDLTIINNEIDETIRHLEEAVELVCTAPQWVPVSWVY
Method in brief: (§1)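 Compounds were tested at 1 uM (in DMSO) against each panel kinase. % control was calculated as (compound − positive control)/(negative control − positive control)×100, where the positive control gives 0% and DMSO gives 100%. Activity toward a kinase was called at % control <35%.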

[2] = target: T2, kinases of the scanMAX Kinase assay panel (Homo sapiens, UniProt O14965); conditions: AURKA; 1 uM
T2 construct: purchased DiscoverX Co. (contract measurement) scanMAX Kinase assay panel
T2 sequence (O14965 1-403): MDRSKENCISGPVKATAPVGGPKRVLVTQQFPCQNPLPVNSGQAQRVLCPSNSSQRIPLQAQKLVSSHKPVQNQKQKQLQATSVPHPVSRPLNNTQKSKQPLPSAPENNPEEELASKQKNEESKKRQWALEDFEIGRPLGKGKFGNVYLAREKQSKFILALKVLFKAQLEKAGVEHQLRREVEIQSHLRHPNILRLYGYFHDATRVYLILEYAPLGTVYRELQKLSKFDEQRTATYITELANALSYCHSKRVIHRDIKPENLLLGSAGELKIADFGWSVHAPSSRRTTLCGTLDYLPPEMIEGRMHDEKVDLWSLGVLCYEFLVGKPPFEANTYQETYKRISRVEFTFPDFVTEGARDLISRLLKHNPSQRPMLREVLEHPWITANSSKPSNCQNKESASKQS
Method in brief: as §1

[3] = target: T3, kinases of the scanMAX Kinase assay panel (Homo sapiens, UniProt O60674); conditions: JAK2(JH1domain-catalytic); 1 uM
T3 construct: purchased DiscoverX Co. (contract measurement) scanMAX Kinase assay panel
T3 sequence (O60674 whole entry): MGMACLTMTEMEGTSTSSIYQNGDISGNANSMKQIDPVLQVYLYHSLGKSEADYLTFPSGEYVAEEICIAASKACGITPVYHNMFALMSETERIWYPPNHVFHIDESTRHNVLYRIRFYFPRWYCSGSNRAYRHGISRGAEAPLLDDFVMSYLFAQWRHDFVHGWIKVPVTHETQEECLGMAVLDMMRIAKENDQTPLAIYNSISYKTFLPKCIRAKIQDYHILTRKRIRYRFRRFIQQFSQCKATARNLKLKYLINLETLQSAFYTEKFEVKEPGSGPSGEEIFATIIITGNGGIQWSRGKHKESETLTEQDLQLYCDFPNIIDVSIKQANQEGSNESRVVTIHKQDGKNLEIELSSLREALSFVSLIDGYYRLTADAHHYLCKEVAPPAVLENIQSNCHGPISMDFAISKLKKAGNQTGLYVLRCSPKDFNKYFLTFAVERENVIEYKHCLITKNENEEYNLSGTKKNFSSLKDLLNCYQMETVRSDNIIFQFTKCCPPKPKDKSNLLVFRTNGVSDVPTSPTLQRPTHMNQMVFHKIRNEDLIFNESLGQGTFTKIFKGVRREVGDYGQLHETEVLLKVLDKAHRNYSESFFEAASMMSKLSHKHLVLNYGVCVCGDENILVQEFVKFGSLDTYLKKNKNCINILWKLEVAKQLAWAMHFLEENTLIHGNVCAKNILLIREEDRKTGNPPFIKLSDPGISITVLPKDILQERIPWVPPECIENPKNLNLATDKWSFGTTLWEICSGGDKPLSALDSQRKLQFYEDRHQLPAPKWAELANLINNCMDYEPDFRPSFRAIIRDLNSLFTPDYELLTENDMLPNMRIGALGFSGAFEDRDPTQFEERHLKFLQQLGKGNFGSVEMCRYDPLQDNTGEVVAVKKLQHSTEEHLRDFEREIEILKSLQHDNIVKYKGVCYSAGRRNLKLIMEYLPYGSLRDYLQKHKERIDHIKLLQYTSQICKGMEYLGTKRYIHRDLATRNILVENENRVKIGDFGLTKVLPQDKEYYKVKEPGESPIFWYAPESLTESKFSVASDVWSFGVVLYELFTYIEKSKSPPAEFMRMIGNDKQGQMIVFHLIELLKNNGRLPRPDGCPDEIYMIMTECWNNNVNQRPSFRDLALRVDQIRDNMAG
Method in brief: as §1

[4] = target: T4, kinases of the scanMAX Kinase assay panel (Homo sapiens, UniProt P32298); conditions: GRK4; 1 uM
T4 construct: purchased DiscoverX Co. (contract measurement) scanMAX Kinase assay panel
T4 sequence (P32298 whole entry): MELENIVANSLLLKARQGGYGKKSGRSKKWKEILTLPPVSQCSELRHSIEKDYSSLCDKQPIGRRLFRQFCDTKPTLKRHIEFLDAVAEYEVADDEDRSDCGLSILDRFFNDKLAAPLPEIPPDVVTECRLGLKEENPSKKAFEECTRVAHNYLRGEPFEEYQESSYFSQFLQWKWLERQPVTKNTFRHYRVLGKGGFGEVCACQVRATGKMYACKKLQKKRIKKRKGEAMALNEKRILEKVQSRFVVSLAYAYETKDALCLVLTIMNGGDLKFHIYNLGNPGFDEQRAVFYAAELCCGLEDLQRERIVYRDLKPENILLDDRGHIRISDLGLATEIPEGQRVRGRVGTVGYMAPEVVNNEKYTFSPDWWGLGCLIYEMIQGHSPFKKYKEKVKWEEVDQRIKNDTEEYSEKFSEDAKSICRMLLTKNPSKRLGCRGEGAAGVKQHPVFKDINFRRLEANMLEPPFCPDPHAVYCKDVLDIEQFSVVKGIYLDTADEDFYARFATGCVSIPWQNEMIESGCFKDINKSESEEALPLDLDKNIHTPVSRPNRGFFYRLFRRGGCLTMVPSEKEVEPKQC
Method in brief: as §1

[5] = target: T5, kinases of the scanMAX Kinase assay panel (Homo sapiens, UniProt P36888, D835H); conditions: FLT3(D835H); 1 uM
T5 construct: purchased DiscoverX Co. (contract measurement) scanMAX Kinase assay panel
T5 sequence (P36888 27-993 D835H): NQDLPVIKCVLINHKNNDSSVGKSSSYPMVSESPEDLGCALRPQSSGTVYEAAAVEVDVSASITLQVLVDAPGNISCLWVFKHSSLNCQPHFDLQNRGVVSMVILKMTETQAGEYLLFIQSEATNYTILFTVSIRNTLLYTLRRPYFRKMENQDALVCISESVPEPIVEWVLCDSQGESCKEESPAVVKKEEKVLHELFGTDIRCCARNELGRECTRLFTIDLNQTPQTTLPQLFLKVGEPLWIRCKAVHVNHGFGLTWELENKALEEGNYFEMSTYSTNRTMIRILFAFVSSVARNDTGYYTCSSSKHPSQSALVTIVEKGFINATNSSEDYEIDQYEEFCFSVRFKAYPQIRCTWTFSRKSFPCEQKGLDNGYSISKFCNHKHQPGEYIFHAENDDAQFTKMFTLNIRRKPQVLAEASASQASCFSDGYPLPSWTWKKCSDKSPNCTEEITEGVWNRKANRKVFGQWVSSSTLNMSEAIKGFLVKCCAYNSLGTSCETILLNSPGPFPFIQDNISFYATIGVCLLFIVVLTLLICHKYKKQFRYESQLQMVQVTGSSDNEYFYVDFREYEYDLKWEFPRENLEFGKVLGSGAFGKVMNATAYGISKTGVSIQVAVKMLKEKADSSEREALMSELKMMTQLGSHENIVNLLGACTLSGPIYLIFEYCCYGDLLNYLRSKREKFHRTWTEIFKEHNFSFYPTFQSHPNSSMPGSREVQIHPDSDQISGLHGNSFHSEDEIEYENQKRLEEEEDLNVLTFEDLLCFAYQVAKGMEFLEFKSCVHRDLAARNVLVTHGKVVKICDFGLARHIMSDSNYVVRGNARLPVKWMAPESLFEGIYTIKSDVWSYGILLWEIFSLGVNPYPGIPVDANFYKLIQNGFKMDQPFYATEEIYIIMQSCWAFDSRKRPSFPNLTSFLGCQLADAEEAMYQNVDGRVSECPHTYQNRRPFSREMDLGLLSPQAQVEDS
Method in brief: as §1

[6] = target: T6, kinases of the scanMAX Kinase assay panel (Homo sapiens, UniProt Q9BQI3); conditions: EIF2AK1; 1 uM
T6 construct: purchased DiscoverX Co. (contract measurement) scanMAX Kinase assay panel
T6 sequence (Q9BQI3 whole entry): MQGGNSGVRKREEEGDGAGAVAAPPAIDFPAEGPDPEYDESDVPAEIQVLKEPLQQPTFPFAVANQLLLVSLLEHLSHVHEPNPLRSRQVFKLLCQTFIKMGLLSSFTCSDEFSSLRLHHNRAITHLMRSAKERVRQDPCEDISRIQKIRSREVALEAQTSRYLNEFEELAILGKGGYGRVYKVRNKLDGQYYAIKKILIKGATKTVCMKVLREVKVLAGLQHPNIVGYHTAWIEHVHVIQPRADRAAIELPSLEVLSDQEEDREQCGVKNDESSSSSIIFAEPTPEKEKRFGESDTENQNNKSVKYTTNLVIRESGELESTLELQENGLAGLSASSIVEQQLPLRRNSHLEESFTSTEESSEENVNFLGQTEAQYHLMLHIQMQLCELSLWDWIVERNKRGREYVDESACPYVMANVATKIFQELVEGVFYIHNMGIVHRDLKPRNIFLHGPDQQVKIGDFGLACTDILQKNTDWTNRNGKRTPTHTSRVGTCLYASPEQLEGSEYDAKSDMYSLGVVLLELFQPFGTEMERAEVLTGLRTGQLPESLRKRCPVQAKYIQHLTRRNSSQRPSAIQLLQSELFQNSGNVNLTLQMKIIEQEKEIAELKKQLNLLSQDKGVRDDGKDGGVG
Method in brief: as §1

SMILES	remaining binding at 1 µM [1]	remaining binding at 1 µM [2]	remaining binding at 1 µM [3]	remaining binding at 1 µM [4]	remaining binding at 1 µM [5]	remaining binding at 1 µM [6]
CNc1nc(Nc2ccc(C(=O)N3CCOCC3)cc2OC)nc2[nH]cc(C#N)c12 [Example 1, 2-((2-methoxy-4-(morpholine-4-carbonyl)phenyl)amino)-4-(methylamino)-7H-pyrrolo[2,3-d]pyrimidine-5-carbonitrile]	69%	99%	83%	92%	92%	64%
CC1(Nc2nc(Nc3cnn([C@H]4CCN(C5COC5)C[C@@H]4F)c3Cl)nc3[nH]cc(C#N)c23)CC1 [Example 52, 2-((5-chloro-1-((3S,4S)-3-fluoro-1-(oxetane-3-yl)piperidine-4-yl)-1H-pyrazole-4-yl)amino)((1-methylcyclopropyl)amino)-7H-pyrrolo[2,3-d]pyrimidine-5-carbonitrile]	91%	0.85%	0%	1.6%	0.1%	86%
CCNc1nc(Nc2ccc(C(=O)N3CCC(N4CCOCC4)CC3)cc2OC)nc2[nH]cc(C(F)(F)F)c12 [Example 104, (4-((4-(ethylamino)-5-(trifluoromethyl)-7H-pyrrolo[2,3-d]pyrimidine-2-yl)amino)-3-methoxyphenyl)(4-morpholinopiperidine-1-yl)methanone]	100%	87%	100%	100%	21%	90%
